According to patent US12239647B2, “ALS treatment using induced regulatory T (iTREG) cells” (RAPA THERAPEUTICS, LLC, priority 2018, dated 2025):

Assays:
[1] = tested on: human CD4+ and CD8+ T cells; assay: Cytokine secretion (Luminex) in extended hybrid Th2/TREG culture with temsirolimus or pemetrexed; assay type: cell-based; conditions: hybrid TREG-Th2 condition; temsirolimus 1.0 μM or pemetrexed 10 nM
Excerpt: (§1) FIGS. 21A-21D illustrates that extended culture of de-differentiated T cells in the hybrid Th2/TREG polarization condition results in the generation of T cells expressing with a predominant Th2 cytokine phenotype: IL-4, IL-5, and IL-13 secretion. […] At days 12, 20, and 32 of culture, the T cells were harvested, washed, and re-stimulated with 3/28 beads (3:1 ratio) for 24 hr; the resultant supernatant was harvested and tested for cytokine content by Luminex multi-analyte method. All results shown are expressed as cytokine level in pg per ml per 1×10^6 cells/ml/24 hr. The Th2 cytokine IL-10 was also evaluated: all values were less than 20 pg/ml per 1×10^6 cells/ml/24 hr.
as §1, with “22A-22D illustrate” for “21A-21D illustrates”, “IL-2, IFN-γ,” for “IL-4, IL-5,”, “GM-CSF” for “IL-13”, “inflammatory cytokines IL-17 and TNF-α were” for “Th2 cytokine IL-10 was”

[2] = tested on: human CD4+ and CD8+ T cells; assay: Western blot for mTORC1-related molecule Raptor after 3-day de-differentiation culture; assay type: cell-based
Excerpt: After the 3-day culture interval, the T cells were harvested, and protein was isolated and subjected to western blot analysis for the mTORC1 complex protein, Raptor, and the housekeeping gene, Actin.

CD8+ T cells = assay: Flow cytometry of CD8+ T cell memory markers after de-differentiation interval; assay type: cell-based, human; conditions: reducing or eliminating only temsirolimus from the initial culture interval (columns #5 and 6)
Description: After the 3-day interval, media was exchanged to fresh X-Vivo 20 without inhibitors, high-level co-stimulation was provided (3:1 bead-to-T cell ratio), and the T cell growth cytokines IL-2 (100 IU/ml) and IL-7 (10 ng/ml) were added. T cells were subjected to flow cytometry for evaluation of co-expression of CD8^+, CD62L^+, and CCR7^+ markers (left panel; evaluated at day 10 of culture); and co-expression of CD8^+, CD62L^+, CCR7^+, and CD127^+ markers (right panel; evaluated at day 10 of culture). All results are shown relative to the value of CD8^+ T cells at culture initiation (last column in FIGS. 10A-10B; “Day 0 Input Value”).

[3] = tested on: human CD4+ and CD8+ T cells; assay: RNA expression of de-differentiation transcription factors and IL-7 receptor alpha after 3-day culture (Luminex Quantigene); assay type: cell-based; conditions: bead:T cell 1:3, temsirolimus 1 μM, relative to control culture
Description: (§2) At the end of the de-differentiation interval, cells were harvested, RNA was isolated, and RNA expression analysis was performed by Luminex Quantigene method. All results shown represent relative RNA expression, with results normalized to a value of 1.0 for the Th1/Tc1 control culture.

[4] = tested on: human CD4+ and CD8+ T cells; assay: T cell yield at day 13 after de-differentiation and re-stimulation without inhibitors; assay type: cell-based
Description: After 10 days (13 days of total culture), the T cells were harvested, enumerated, and evaluated by flow cytometry. FIG. 8 illustrates the effect of culture components during the de-differentiation interval on subsequent T cell yield (at day 13 of culture). […] After the 3-day interval, media was exchanged to fresh X-Vivo 20 without inhibitors, high-level co-stimulation was provided (3:1 bead-to-T cell ratio), and the T cell growth cytokines IL-2 (100 IU/ml) and IL-7 (10 ng/ml) were added. At day 13 of culture, viable T cells were enumerated and the overall yield is shown relative to day 0 input number.

[5] = tested on: human CD4+ and CD8+ T cells; assay: RNA expression of Th1 transcription factors and HIF-1-α after 3-day culture (Luminex Quantigene); assay type: cell-based; conditions: bead:T cell 1:3, temsirolimus 1 μM, Vitamin D 0.1 to 1.0 nM, relative to control culture
Description: as §2

[6] = tested on: human CD4+ and CD8+ T cells; assay: RNA expression of T cell effector molecules after 3-day de-differentiation culture (Luminex Quantigene); assay type: cell-based; conditions: 3-day culture, bead:T cell 1:3, temsirolimus 1 μM, Vitamin D 0.1 or 1.0 nM; relative to control Th1/Tc1 culture
Description: as §2

CD4+ T cells = assay: Flow cytometry of CD4+ T cell memory markers after de-differentiation interval; assay type: cell-based, human
Description: FIGS. 9A-9C illustrate the effect of culture components during the de-differentiation interval on CD4^+ T cell expression of memory markers (at day 13 of culture). […] After the 3-day interval, media was exchanged to fresh X-Vivo 20 without inhibitors, high-level co-stimulation was provided (3:1 bead-to-T cell ratio), and the T cell growth cytokines IL-2 (100 IU/ml) and IL-7 (10 ng/ml) were added. […] All results are shown relative to the value of CD4^+ T cells at culture initiation (last column in FIGS. 9A-9C; “Day 0 Input Value”).

[7] = tested on: human CD4+ and CD8+ T cells; assay: Western blot for Raptor, Rictor, p70S6K and SGK1 after 3-day de-differentiation culture; assay type: cell-based; conditions: combination agent de-differentiation: temsirolimus 1 μM, Vitamin D 0.03 to 1.0 nM, Daclizumab 50 μg/ml; relative to control culture
Excerpt: After the 3-day culture interval, the T cells were harvested, and protein was isolated and subjected to western blot analysis for the mTORC1 complex protein, Raptor; the mTORC2 complex protein, Rictor; the post-mTORC1 protein p70S6K; the post-mTORC2 protein, SGK1; and the housekeeping gene, GAPDH.

[8] = tested on: human CD4+ and CD8+ T cells; assay: Cytokine secretion (Luminex) after 10-day re-differentiation in polarization conditions; assay type: cell-based; conditions: lack of IL-4 inclusion in the T cell re-differentiation process
Excerpt: FIGS. 16A-16C illustrate that the culture of de-differentiated T cells in hybrid Th2/TReg polarization condition results in the generation of T cells with a primitive Th2 cell cytokine phenotype: as indicated by high levels of IL-2 and IL-4 secretion and a low level of IL-5 secretion. Human CD4+ and CD8^+ T cells were subjected to a 3-day de-differentiation procedure and subsequent culture in media containing variable polarization culture conditions and variable presence of pemetrexed, as described in FIG. 13. Out of the total of n=24 culture conditions, only the cultures with favorable cell yields were further evaluated; all cultures shown that contained pemetrexed (“+”) were at the concentration of 10 nM. The TREG conditions above all contained IL-2, TGF-β, and IL-4 (“TReg”) unless indicated (“TReg, No IL4”). […] All results shown are expressed as cytokine level in pg per ml per 1×10^6 cells/ml/24 hr.
FIGS. 17A-17C illustrate that the culture of de-differentiated T cells in hybrid Th2/TReg polarization condition results in the generation of T cells with a primitive Th2 cell cytokine phenotype: as indicated by low levels of IL-10, IL-13, and IL-17 secretion. […] Out of the total of n=24 culture conditions, only the cultures with favorable cell yields were further evaluated; all cultures shown that contained pemetrexed (“+”) were at the concentration of 10 nM. […] All results shown are expressed as cytokine level in pg per ml per 1×10^6 cells/ml/24 hr.
FIGS. 18A-18C illustrates that the culture of de-differentiated T cells in hybrid Th2/TREG polarization condition results in the generation of T cells with a primitive Th2 cell cytokine phenotype: as indicated by low levels of IFN-gamma, TNF-alpha, and GM-CSF secretion. […] Out of the total of n=24 culture conditions, only the cultures with favorable cell yields were further evaluated; all cultures shown that contained pemetrexed (“+”) were at the concentration of 10 nM. […] All results shown are expressed as cytokine level in pg per ml per 1×10^6 cells/ml/24 hr.

CD4+ and CD8+ T cells = assay: Flow cytometry of GATA3 and FOXP3 in Th2/TREG cell product after 6-day culture; assay type: cell-based, human; conditions: control manufacturing culture that did not include IL-4
Excerpt: After the 6-day culture, the T cells were harvested, stained for surface markers (CD4 and CD8) and intracellular molecule expression (GATA3 and FOXP3) and evaluated by flow cytometry. Results in FIGS. 26A-B show the FOXP3 and GATA3 expression for CD4+ and CD8+ T cells at the start of culture and after culture (Th2/TREG) as measured by flow cytometry. The percentages provided indicate the amount of cells considered positive for CD4+ or CD8+ and the intracellular marker (shown in boxes).

[9] = tested on: human CD4+ and CD8+ T cells; assay: Western blot for pro-apoptosis molecule BIM after 3-day de-differentiation culture; assay type: cell-based; conditions: 3-day culture, bead:T cell 1:3; Vitamin D 0.1 nM, Daclizumab 50 μg/ml
Excerpt: After the 3-day culture interval, the T cells were harvested, and protein was isolated and subjected to western blot analysis for the pro-apoptosis-related gene, BIM, and the housekeeping gene, Actin.
To assess this, we measured BIM levels in the T cells cultured with a low-strength of co-stimulation (1:3 bead-to-T cell ratio) and presence of the various inhibitors.

[10] = Vitamin D 1.0 nM in combination

CO[C@H]1C[C@@H]2CC[C@@H](C)[C@@](O)(O2)C(=O)C(=O)N2CCCC[C@H]2C(=O)O[C@H]([C@H](C)C[C@@H]2CC[C@@H](OC(=O)C(C)(CO)CO)[C@H](OC)C2)CC(=O)[C@H](C)/C=C(\C)[C@@H](O)[C@@H](OC)C(=O)[C@H](C)C[C@H](C)/C=C/C=C/C=C/1C [temsirolimus]
IL-5 secretion [1]: blunted | IL-13 secretion [1]: blunted | optimal dose for down-regulation of Raptor ([2]; combination of Vitamin D plus temsirolimus): 1.0 µM | Raptor expression ([2]; temsirolimus 0.3 μM (culture 9), versus 1.0 μM): higher levels of Raptor expression | frequency of CD8+ triple-positive (CD62L, CCR7, CD127) T cells (CD8+ T cells): greatly reduced the frequency of triple-positive T cells | IL-7 receptor alpha RNA expression [3, 10]: capable of up-regulating | KLF4 RNA expression [3, 10]: neither temsirolimus nor Vitamin D alone increased | KLF10 RNA expression [3, 10]: acts alone to beneficially up-regulate | Nanog RNA expression ([3]; Vitamin D 0.1 or 1.0 nM): up-regulation | preferable concentration for T cell yield ([4]; de-differentiation interval): 1.0 µM | T cell yield at day 13 of culture ([4]; temsirolimus concentration reduced to 0.1 μM (column #7)): reduced the resultant T cell yield | HIF-1-α RNA expression [5]: did not down-regulate | STAT1 RNA expression [5]: acts alone to beneficially down-regulate | T-BET RNA expression [5]: acts alone to beneficially down-regulate | Granzyme B RNA expression [6]: reduction | IFN-gamma RNA expression [6]: reduction | IL-10 RNA expression [6]: reduction | CD4+ CD45RA+ naïve T cell population (CD4+ T cells; elimination of temsirolimus during the initial culture interval (culture #6)): depletion of the naïve T cell population | frequency of CD4+ triple-positive (CD62L, CCR7, CD127) T cells (CD4+ T cells; reducing or eliminating only temsirolimus from the initial culture interval (columns #5 and 6)): greatly reduced the frequency of triple-positive T cells | Rictor expression (western blot, FIG. 6) [7]: effective

B1: IL-4: Th2 polarizing cytokine added to re-differentiation culture (protein, UniProt P05112 25-153, looked up)
Interleukin-4: HKCDITLQEIIKTLNSLTEQKTLCTELTVTDIFAASKNTTEKETFCRAATVLRQFYSHHEKDTRCLGATAQQFHRHKQLIRFLKRLDRNLWGLAGLNSCPVKEANQSTLENFLERLKTIMREKYSKCSS
GM-CSF secretion [8]: higher levels | IFN-γ secretion [8]: higher levels | TNF-α secretion [8]: higher levels | frequency of GATA3-positive T cells (CD4+ and CD8+ T cells): greatly reduced frequency of GATA3-positive T cells

B2: Daclizumab: anti-IL-2 receptor monoclonal antibody (antibody, chains of the INN, looked up, V domains shown)
VH: QVQLVQSGAEVKKPGSSVKVSCKASGYTFTSYRMHWVRQAPGQGLEWIGYINPSTGYTEYNQKFKDKATITADESTNTAYMELSSLRSEDTAVYYCARGGGVFDYWGQGTLVTVSS
VL: DIQMTQSPSTLSASVGDRVTITCSASSSISYMHWYQQKPGKAPKLLIYTTSNLASGVPARFSGSGSGTEFTLTISSLQPDDFATYYCHQRSTYPLTFGQGTKVEVK
Raptor expression (western blot, normalized by actin) ([2]; 3-day culture, bead:T cell 1:3, temsirolimus 1.0 μM, Vitamin D 0.1 nM, Daclizumab 50 μg/ml): beneficial role in suppressing | BIM expression (western blot, normalized by actin) [9]: beneficial role in suppressing | Rictor expression (western blot, FIG. 6) [7]: did not abrogate
